Source: US9944583B2, “Methods for ameliorating and preventing central nervous system inflammation” (THE REGENTS OF THE UNIVERSITY OF CALIFORNIA, priority 2007, dated 2018)
“Also recorded” adds a separate entry of the source.

Columns and labels:
NADPH oxidase = molecular target: T1, NADPH oxidase (Mus musculus, UniProt Q61093); assay: EPR superoxide production by forebrain synaptosomes exposed to IL-6; format: biochemical; conditions: IL-6 100 ng/ml, synaptosomes
T1 sequence (Q61093 1-570): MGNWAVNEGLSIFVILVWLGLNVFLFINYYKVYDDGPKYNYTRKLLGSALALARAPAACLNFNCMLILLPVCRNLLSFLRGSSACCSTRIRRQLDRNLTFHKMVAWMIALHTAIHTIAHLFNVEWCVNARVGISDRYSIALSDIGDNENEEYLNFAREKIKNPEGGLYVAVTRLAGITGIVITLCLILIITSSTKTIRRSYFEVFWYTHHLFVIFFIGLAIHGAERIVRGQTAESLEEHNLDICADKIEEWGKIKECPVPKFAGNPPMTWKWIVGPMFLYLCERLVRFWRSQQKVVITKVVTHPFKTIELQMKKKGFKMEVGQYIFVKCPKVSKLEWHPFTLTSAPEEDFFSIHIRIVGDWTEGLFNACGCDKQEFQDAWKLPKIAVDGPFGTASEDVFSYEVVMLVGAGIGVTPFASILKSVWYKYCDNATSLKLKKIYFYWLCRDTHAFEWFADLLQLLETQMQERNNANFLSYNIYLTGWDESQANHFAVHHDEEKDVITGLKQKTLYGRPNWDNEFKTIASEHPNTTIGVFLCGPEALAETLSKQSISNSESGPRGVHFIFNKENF
T1 sequence (Q61462 1-192 partner): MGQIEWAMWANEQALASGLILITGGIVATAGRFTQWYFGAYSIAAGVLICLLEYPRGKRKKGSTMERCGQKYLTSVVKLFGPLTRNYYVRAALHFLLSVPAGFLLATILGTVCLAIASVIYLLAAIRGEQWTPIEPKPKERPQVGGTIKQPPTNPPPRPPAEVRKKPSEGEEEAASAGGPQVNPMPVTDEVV

[1] = in vivo; cited from earlier work
[2] = system: primary neuronal cultures; assay: IL-6 exposure of primary neuronal cultures: oxidized DHE, Nox2, parvalbumin and GAD67; format: cell-based, mouse
Protocol: IL-6 increases superoxide in a Nox dependent manner, and reduces GAD67 and parvalbumin in primary cultures, as summarized by the data graphically presented in FIG. 18. […] As before, dihydroethidium (DHE) was applied for the last hour (DHE detects superoxide and hydrogen peroxide). After fixation, ICC for PV and GAD67 was carried out as described in methods and quantitative confocal microscopy was utilized for fluorescence analysis.
DHE (1 μg/ml) was added during the last hour of treatment. Images show the increase in Nox2 immunoreactivity and oxidized DHE upon treatment with IL-6. Bar-graphs show the results of quantification of oxidized DHE and Nox2 fluorescence expressed as % of control. […] Data are means±SEM. Baseline intensities: DHE=21±4.7; Nox2=18.7±2.6.
Fluorescence confocal images of representative fields depicting the expression of parvalbumin (PV) and GAD67 in PV-interneurons. Bar-graph represents the quantification of fluorescence expressed as % of control. […] Data are means±SEM. Baseline intensities: PV=135±32; GAD67=114±26.
IL-6 potentiates ketamine effects on PV-interneurons. […] After fixation, ICC for GAD67 and parvalbumin was carried out as described by Kinney (2006) J. Neurosci. […] N=3 cultures per condition.

[3] = IL-6 i.p. in young and old mice: plasma IL-6 (ELISA) and tolerability; format: in vivo
Protocol: Plasma IL-6 is increased with aging or after intraperitoneal (i.p.) administration of IL-6, as illustrated by data shown in FIG. 44. […] IL-6 was assayed by ELISA (R&D Systems, Minneapolis, Minn.). Mice were then given a direct intraperitoneal (IP) injection of 3 μg/kg IL-6 on two consecutive days, and plasma IL-6 was assayed 16 hours (hr) after the last injection. […] Since the half-life of IL-6 in plasma is 4 hr, the sustained increase in IL-6 after injection may indicate induction of new IL-6 synthesis in young mice, which may be suppressed by the high endogenous IL-6 levels in old mice.

Jak2 = Jak2 phosphorylation in cortical neurons exposed to IL-6; format: cell-based, mouse; conditions: IL-6 20 ng/ml, 1 h, absence of astrocytes
Protocol: Exposure of cortical neurons to IL-6 (20 ng/ml, 1 h in the absence of astrocytes) increased the phosphorylation of the protein kinase Jak2, which transduces the signal from the activated IL-6 receptor, as illustrated by the data shown in FIG. 34A. […] Prolonged exposure (24 h) to the interleukin increased production of superoxide (as determined by DHE oxidation) and increased the expression of Nox2 in neurons, as illustrated by the data shown in FIG. 34B. The role of Nox2 activation in the increase in DHE oxidation was confirmed by co-exposure to the Nox inhibitor apocynin (0.5 mM) (FIG. 34B bottom panels).
For FIGS. 34A-34B: primary neuronal cultures were developed on coverslips as described Kinney et al., 2006, supra. After 21 days in culture, coverslips containing neurons were separated from the astrocytic monolayers, washed in HCSS and subjected to IL-6 treatment for 1 hour (FIG. 34A) or treated with IL-6 for 24 h on top of the astrocyte monolayer (FIG. 34B). After treatment, the coverslips were fixed in paraformaldehyde and processed for double fluorescence immuno-cytochemistry using the following antibodies: anti-GAD67 (1:2000, Chemicon. Red) anti-phospho-Jak2 (1:100, Cell Signaling. Green), and anti-Nox2 (1:300, monoclonal 54.1 Green). […] Secondary antibodies were conjugated to ALEXAFLUOR 488™ (green fluorescence) and ALEXAFLUOR 568™ (red fluorescence).

Nox2 = assay: IL-6 i.p. on two consecutive days in mice: brain and synaptosomal Nox; conditions: IL-6 5 μg/kg i.p. on two consecutive days
PV-interneurons [4] = assay: parvalbumin and GAD67 immunoreactivity in PV-interneurons in primary neuronal cultures; conditions: co-exposure with ketamine 24 h; muscimol 10 μM, C3, apocynin 0.5 mM
[5] = system: PV-interneurons in mouse prefrontal cortex; assay: two-day ketamine treatment of mice: oxidized DHE, parvalbumin and GAD67 in prefrontal cortex; format: in vivo; conditions: apocynin 5 mg/kg/day 1 week in drinking water; C3 1.0 mg/kg/day one month by mini-pumps
Protocol: Animals and treatments. […] Male C57BL6 mice were obtained from Jackson Labs, Bar Harbor, Me., at 8-12 weeks and housed in our facility until 15 weeks when they were used for experiments. Ketamine (30 mg/kg) was applied intraperitoneally (IP) on two consecutive days at around 4 pm. DHE was applied 30 min after the last ketamine injection as described (19, 20). Briefly, two serial i.p. injections of freshly prepared dihydroethidium (27 mg/kg) are given at 30 minute intervals. Eighteen hours later, mice are anesthetized with inhaled halothane, and perfused intracardially with cold saline followed by 4% paraformaldehyde in PBS. The Nox inhibitor, apocynin (5 mg/kg/day) was given in the drinking water for a total of seven days, with an assumed intake of […] H2O/mouse/day, and ketamine was applied on the last two days. […] All animal studies were approved by the Animal Care Program at the University of California, San Diego, and are in accordance the PHS Guide for the Care and Use of Laboratory Animals, USDA Regulations, and the AVMA Panel on Euthanasia.
Immunohistochemistry: Brains were frontally sliced in a vibratome into 50 μm coronal sections encompassing the prefrontal cortex region (from Bregma 2.0 to 1.3). Sequential slices were processed for floating-section double immunohistochemistry for the detection of parvalbumin and GAD67. Antigen retrieval was performed by incubation of the slices in 1% sodium borohydride for 15 min as described (see reference 34, below), followed by washing in PBS and incubation in 10% normal goat serum in PBS for 16 h at 4° C. Primary antibodies (Calbindin: 1:5000: Calretinin: 1:2000; Parvalbumin: 1:3000, all rabbit polyclonals from Swant, Bellinzona, Switzerland. GAD67: 1:1000, from Chemicon-Millipore, Temecula, Calif.) were diluted in 2% normal goat serum in PBS and applied to the slices for 18 h at 4° C., after which slices were washed in PBS and incubated in a 1:1000 dilution of ALEXAFLUOR™ (Molecular Probes, Invitrogen, Carlsbad, Calif.) conjugated goat anti-rabbit (568) or goat anti-mouse (488) antibodies for 1 hr at room temperature (rt). Slices were washed in PBS and mounted sequentially in glass slides using […]™ (Vector Laboratories, Burlingame, Calif.), covered with a coverslip and allowed to dry for at least 24 h before confocal imaging.
Six slices were analyzed per animal.
Analysis of superoxide and/or hydrogen peroxide production by confocal imaging of in vivo dihydroethidium (DHE) oxidation. Mice will be injected intraperitoneally (i.p.) with dihydroethidium.

[6] = system: primary neuronal cultures; assay: DHE oxidation (superoxide and/or hydrogen peroxide production) in primary neuronal cultures exposed to ketamine; format: cell-based, mouse
[7] = system: pyramidal layer of CA1 in the aged hippocampus; assay: in vivo superoxide production in CA1 of the aged hippocampus (DHE confocal imaging); design: species or system mouse; conditions: old mice; C3 by oral administration; apocynin
Protocol: Analysis of superoxide and/or hydrogen peroxide production by confocal imaging of in vivo dihydroethidium (DHE) oxidation. Mice will be injected intraperitoneally (i.p.) with dihydroethidium. Briefly, two serial i.p. injections of freshly prepared dihydroethidium (27 mg/kg) are given at 30 minute intervals. Eighteen hours later, mice are anesthetized with inhaled halothane, and are perfused intracardially with cold saline followed by 4% paraformaldehyde in PBS. Brains are removed and post-fixed in 2% paraformaldehyde for >24 h. Following fixation, brains are cut into 50 μm coronal sections and co-labeled with the appropriate primary and secondary antibodies for fluorescence visualization. […] First, an image is taken in the fluorescence channel of the ICC-fluorophor and then the channel is switched to image fluorescence from DHE oxidation. […] Using the image pairs for each field and MetaMorph software, an analyst blind to the group circles the outline of each ICC-labeled cell and then switches to the DHE oxidation image. The average fluorescence intensity for each cell of interest is logged, and values averaged to determine the mean fluorescence/cell.

PV-interneurons [8] = assay: PV-interneuron counts in old mice after long-term SOD-mimetic treatment; format: in vivo, mouse; conditions: treatment of animals from middle age (OM+C3)
Protocol: Aging was accompanied by a statistically significant decrease in PV-interneuron number in all regions analyzed, as shown in FIG. 41B. […] Statistical significance was determined by ANOVA followed by Tukey's test.

Substance	superoxide production (EPR, DEPMPO) (NADPH oxidase)	half-life in plasma [1] [h]	immunoreactivity of GAD67 and parvalbumin in PV-interneurons ([2]; IL-6 10 ng/ml, 24 h)	levels of DHE oxidation ([2]; IL-6 10 ng/ml, 24 h)	effect on parvalbumin and GAD67 immunoreactivity with sub-threshold ketamine ([2]; IL-6 10 ng/ml, ketamine, 24 h)	expression of Nox2 ([2]; IL-6, 24 hours)	plasma IL-6 16 hr after the last injection ([3]; 3 μg/kg IL-6 i.p. on two consecutive days)	tolerability of higher doses ([3]; IL-6 12 μg/kg)	phosphorylation of Jak2 (Jak2)	Nox activity in synaptosomal preparations (Nox2)	effect on ketamine-mediated loss of parvalbumin and GAD67 immunoreactivity in PV-interneurons (PV-interneurons [4])	effect on ketamine-induced increase in oxidized DHE in vivo [5]	effect on ketamine-mediated loss of parvalbumin immunoreactivity in PV-interneurons in vivo [5]	effect on ketamine-mediated increase in ROS / free radical production (DHE fluorescence) [6]	effect on ketamine-mediated increase in oxidized DHE [6]	effect on elevated levels of superoxide in the pyramidal layer of CA1 in the aged hippocampus [7]	effect on age-related reduction of PV-interneuron numbers (PV-interneurons [8])
IL-6: pro-inflammatory cytokine interleukin-6	small but significant increase	4	decreased	increased	increased the effects of ketamine	pronounced increase	increased plasma IL-6 in young, but not old, mice	induced the sickness response and generalized inflammatory reaction	increased	significant induction							
tris malonic acid C60 [C3]											prevented; also recorded: attenuated	prevented	completely prevented	prevented	prevented	prevented	prevented the reduction of PV-interneuron numbers in CA1 and CA3, but not in DG
